We go through one compound from patent US4173629A, “Antibiotic S 31794/F-1” (Sandoz Ltd., priority 1975, dated 1979).

≈ marks a conversion by molar mass, not a printed value. *1 amine or outer side, *2 acyl side, *3 side chain or, on linkers, in order; H or OH if unused. Where a SMILES comes first, the peptide text is derived from it. Bridges are numbered along the chain shown (N, C = ends). [ ]: non-standard residue; d: D form. The star is where a group is joined. Orn(4R-OH,5R-OH) = O=C([C@H](C[C@@H](O)[C@@H](O)N[*:3])N[*:1])[*:2]; hTyr(3S-OH,4S-OH) = N[C@H](C(=O)O)[C@H](O)[C@@H](O)c1ccc(O)cc1; Pro(3S-OH,4S-Me) = C[C@H]1CN[C@H](C(=O)O)[C@H]1O; Gln(3R-OH) = NC(=O)C[C@@H](O)[C@H](N)C(=O)O; Hyp = O=C(O)[C@@H]1C[C@@H](O)CN1; Myristoyl = CCCCCCCCCCCCCC(=O)* Some results are limits rather than exact numbers.

One data set in a line: Solubility. The data set is classed as physicochemical.
Data set [1] relates to usual gram-positive and gram-negative bacteria. Briefly: activity spectrum, bacteria. The data set is classed as cell-based.
In another data set the test system is Neurospora crassa. Briefly: MIC, series dilution test. It counts as cell-based. Particulars: malt extract medium (2%), pH 5.2-5.4, 27° C., 48 to 72 hours. On the procedure:
(§1) The MIC (minimum inhibiting concentration) values are obtained in the well known series dilution test. The incubation was effected in a malt extract medium (2%) having a pH of 5.2-5.4 at 27° C. for 48 to 72 hours. The test strains are well known and have been deposited in the fungi collection of the firm Sandoz, Basel, where they are available for examination.

The test system of another data set is Aspergillus fumigatus. Description: MIC, series dilution test. It counts as cell-based. To be noted: malt extract medium (2%), pH 5.2-5.4, 27° C., 48 to 72 hours. As to the method: as §1
For another data set, the system named is Aspergillus niger. Briefly: MIC, series dilution test. It counts as cell-based. Particulars: malt extract medium (2%), pH 5.2-5.4, 27° C., 48 to 72 hours. As to the method: as §1
Data set [2] deals with Candida albicans Blast. res. Briefly: MIC, series dilution test. The data set is classed as cell-based. Particulars: malt extract medium (2%), pH 5.2-5.4, 27° C., 48 to 72 hours. On the procedure: as §1
In the next data set the test system is Trichophyton quinckeanum. Briefly: MIC, series dilution test. Particulars: malt extract medium (2%), pH 5.2-5.4, 27° C., 48 to 72 hours. It counts as cell-based. On the procedure: as §1
The subject of another data set is Candida tropicalis. Description: MIC, series dilution test. It counts as cell-based. To be noted: malt extract medium (2%), pH 5.2-5.4, 27° C., 48 to 72 hours. On the procedure:
as §1

A further data set deals with Candida krusei. Description: MIC, series dilution test. It counts as cell-based. To be noted: malt extract medium (2%), pH 5.2-5.4, 27° C., 48 to 72 hours. As to the method: as §1
A further data set concerns Candida albicans 5897. Description: MIC, series dilution test. The data set is classed as cell-based. To be noted: malt extract medium (2%), pH 5.2-5.4, 27° C., 48 to 72 hours. As to the method:
as §1

A further data set has as its system Sporotrichum schenkii. Description: MIC, series dilution test. Particulars: malt extract medium (2%), pH 5.2-5.4, 27° C., 48 to 72 hours. The data set is classed as cell-based. As to the method:
as §1

For another data set, the system named is Candida albicans 439. Description: MIC, series dilution test. The data set is classed as cell-based. To be noted: malt extract medium (2%), pH 5.2-5.4, 27° C., 48 to 72 hours. As to the method:
as §1

The subject of the next data set is Microsporum canis. Description: MIC, series dilution test. The data set is classed as cell-based. To be noted: malt extract medium (2%), pH 5.2-5.4, 27° C., 48 to 72 hours. As to the method:
as §1

In another data set the test system is Candida albicans H 12. Description: MIC, series dilution test. It counts as cell-based. Particulars: malt extract medium (2%), pH 5.2-5.4, 27° C., 48 to 72 hours. On the procedure:
as §1

The test system of data set [3] is Trichophyton mentagrophytes. Description: MIC, series dilution test. The data set is classed as cell-based. Particulars: malt extract medium (2%), pH 5.2-5.4, 27° C., 48 to 72 hours. As to the method:
as §1

Another data set concerns Candida albicans. Description: MIC, series dilution test. It counts as cell-based. To be noted: malt extract medium (2%), pH 5.2-5.4, 27° C., 48 to 72 hours. On the procedure:
as §1

In a further data set the test system is Blastomyces dermatitidis. Description: MIC, series dilution test. The data set is classed as cell-based. Particulars: malt extract medium (2%), pH 5.2-5.4, 27° C., 48 to 72 hours. On the procedure: as §1
A further data set has as its system Curvularia lunata. Description: MIC, series dilution test. It counts as cell-based. To be noted: malt extract medium (2%), pH 5.2-5.4, 27° C., 48 to 72 hours. As to the method: as §1
The next data set relates to Candida tropicalis CK 4. Description: MIC, series dilution test. It counts as cell-based. To be noted: malt extract medium (2%), pH 5.2-5.4, 27° C., 48 to 72 hours. On the procedure: as §1
A further data set is described as follows: Stability. The data set is classed as physicochemical.
The subject of data set [4] is yeast and fungi, particularly Candida strains. Description: activity spectrum, yeast and fungi. The data set is classed as cell-based. On the procedure: as §1

In the case of `CCCCCCCCCCCCCC(=O)N[C@H]1C[C@@H](O)[C@@H](O)NC(=O)[C@@H]2[C@@H](O)[C@@H](C)CN2C(=O)[C@H]([C@H](O)CC(N)=O)NC(=O)[C@H]([C@H](O)[C@@H](O)c2ccc(O)cc2)NC(=O)[C@@H]2C[C@@H](O)CN2C(=O)[C@H]([C@@H](C)O)NC1=O` [S 31794/F-1] (Myristoyl-[Orn(4R-OH,5R-OH)]T[Hyp][hTyr(3S-OH,4S-OH)][Gln(3R-OH)][Pro(3S-OH,4S-Me)]; lactam 1-C), the Solubility result in the data set “Solubility” (in methanol, ethanol, pyridine and dimethyl sulphoxide) is reported as “easily soluble”; in “Solubility” (in water, chloroform, ethyl acetate, diethyl ether, benzene and hexane), “difficulty soluble”. Besides, the “effect against the usual gram-positive and gram-negative bacteria” value in [1] is recorded as “does not exhibit a significant effect”. Further, the “MIC (minimum inhibiting concentration)” value against Neurospora crassa was > 100 µg/mL; against Aspergillus fumigatus, 32 µg/mL (≈ 30.4 µM); with Aspergillus niger, 100 µg/mL (≈ 95.1 µM); in data set [2] it was 0.03 µg/mL (≈ 0.0285 µM); in the data set on Trichophyton quinckeanum, > 100 µg/mL; against Candida tropicalis, 0.3 µg/mL (≈ 0.285 µM). The “MIC (minimum inhibiting concentration)” value in the data set on Candida krusei was 1 µg/mL (≈ 0.951 µM); with Candida albicans 5897 it was 0.3 µg/mL (≈ 0.285 µM); against Sporotrichum schenkii, > 100 µg/mL; with Candida albicans 439, 0.03 µg/mL (≈ 0.0285 µM); in the data set with Microsporum canis, 100 µg/mL (≈ 95.1 µM); against Candida albicans H 12, 0.3 µg/mL (≈ 0.285 µM). Moreover, the “MIC (minimum inhibiting concentration)” value is 32 µg/mL (≈ 30.4 µM) in [3]; 0.3 µg/mL (≈ 0.285 µM) with Candida albicans; 100 µg/mL (≈ 95.1 µM) in the data set with Blastomyces dermatitidis; > 100 µg/mL against Curvularia lunata; 0.01 µg/mL (≈ 0.00951 µM) with Candida tropicalis CK 4. For the same compound, the Stability entry was “decomposes, losing its anti-fungal activity” in the data set “Stability” (alkaline or strong acidic conditions) and “stable” in “Stability” (aqueous methanol at pH 3-7.5). The “effect against yeast and fungi, particularly against Candida strains” value in data set [4] was “pronounced effect”.
